Source: patent publication US12528778B2, “Microbiocidal derivatives” (SYNGENTA CROP PROTECTION AG, priority 2019, dated 2026)

Columns and labels:
[1] = system: Glomerella lagenarium (Colletotrichum lagenarium); assay: Glomerella lagenarium (Colletotrichum lagenarium) / liquid culture (anthracnose); format: cell-based; settings: Colletotrichum orbiculare, PDB liquid culture, 24° C., growth inhibition measured photometrically 3-4 days after application, vs untreated control
Experimental: Example B2: Glomerella lagenarium (Colletotrichum lagenarium)/Liquid Culture (Anthracnose) Conidia of the fungus from cryogenic storage are directly mixed into nutrient broth (PDB potato dextrose broth). After placing a (DMSO) solution of test compound into a microtiter plate (96-well format), the nutrient broth containing the fungal spores is added. The test plates are incubated at 24° C. and the inhibition of growth is measured photometrically 3-4 days after application. […] […]-49, and P-50.

[2] = system: Blumeria graminis f. sp. tritici (Erysiphe graminis f. sp. tritici); assay: Blumeria graminis f. sp. tritici / wheat / leaf disc preventative (powdery mildew on wheat); format: in vivo; settings: foliar, wheat leaf segments cv. Kanzler, inoculated 1 day after application, assessed 6-8 days after application, vs untreated control
Experimental: Example B3: Blumeria graminis f. sp. tritici (Erysiphe graminis f. so. tritici)/Wheat/Leaf Disc Preventative (Powdery Mildew on Wheat) Wheat leaf segments cv. Kanzler are placed on agar in a multiwell plate (24-well format) and sprayed with the formulated test compound diluted in water. The leaf disks are inoculated by shaking powdery mildew infected plants above the test plates 1 day after application. The inoculated leaf disks are incubated at 20°° C. and 60% rh under a light regime of 24 h darkness followed by 12 h light/12 h darkness in a climate chamber and the activity of a compound is assessed as percent disease control compared to untreated when an appropriate level of disease damage appears on untreated check leaf segments (6-8 days after application). […]-45, and P-50.

[3] = system: Monographella nivalis (Microdochium nivale); assay: Monographella nivalis (Microdochium nivale) / liquid culture (foot rot cereals); format: cell-based; settings: PDB liquid culture, 24° C., growth inhibition determined photometrically 4-5 days after application, vs untreated control
Experimental: Example B5: Monographella nivalis (Microdochium nivale)/Liquid Culture (Foot Rot Cereals) Conidia of the fungus from cryogenic storage are directly mixed into nutrient broth (PDB potato dextrose broth). After placing a (DMSO) solution of test compound into a microtiter plate (96-well format), the nutrient broth containing the fungal spores is added. The test plates are incubated at 24° C. and the inhibition of growth is determined photometrically 4-5 days after application. […] […]-49, and P-50.

[4] = system: Magnaporthe grisea (Pyricularia oryzae); assay: whole plant or invertebrate; format: in vivo; settings: foliar, read-out: control of Magnaporthe grisea
[5] = system: Mycosphaerella arachidis (Cercospora arachidicola); assay: Mycosphaerella arachidis (Cercospora arachidicola) / liquid culture (early leaf spot); format: cell-based; settings: PDB liquid culture, 24° C., growth inhibition determined photometrically 4-5 days after application, vs untreated control
Experimental: Example B6: Mycosphaerella arachidis (Cercospora arachidicola)/Liquid Culture (Early Leaf Spot) Conidia of the fungus from cryogenic storage are directly mixed into nutrient broth (PDB potato dextrose broth). After placing a (DMSO) solution of test compound into a microtiter plate (96-well format), the nutrient broth containing the fungal spores is added. The test plates are incubated at 24° C. and the inhibition of growth is determined photometrically 4-5 days after application. […] […]-44, and P-48.

[6] = system: Mycosphaerella graminicola (Septoria tritici); assay: Mycosphaerella graminicola (Septoria tritici) / liquid culture (Septoria blotch); format: cell-based; settings: Zymoseptoria tritici, PDB liquid culture, 24° C., growth inhibition determined photometrically 4-5 days after application, vs untreated control
Experimental: Example B12: Mycosphaerella graminicola (Septoria tritici)/Liquid Culture (Septoria Blotch) Conidia of the fungus from cryogenic storage are directly mixed into nutrient broth (PDB potato dextrose broth). After placing a (DMSO) solution of test compound into a microtiter plate (96-well format), the nutrient broth containing the fungal spores is added. The test plates are incubated at 24° C. and the inhibition of growth is determined photometrically 4-5 days after application. […] […]-48, and P-49.

[7] = system: Alternaria solani; assay: Alternaria solani / tomato / leaf disc (early blight); format: in vivo; settings: foliar, tomato leaf disks cv. Baby, inoculated 2 days after application, assessed 5-7 days after application, vs untreated control
Experimental: Example B1: Alternaria solani/Tomato/Leaf Disc (Early Blight) Tomato leaf disks cv. Baby are placed on agar in multiwell plates (24-well format) and sprayed with the formulated test compound diluted in water. The leaf disks are inoculated with a spore suspension of the fungus 2 days after application. The inoculated leaf disks are incubated at 23° C./21° C. […] […]-43, and P-44.

Cc1ncc(Nc2cc(F)nc(F)c2)nc1C(=O)NC1CCC1(C)C (stereo not shown) [Compound P-50, 6-[(2,6-difluoro-4-pyridyl)amino]-N-(2,2-dimethylcyclobutyl)-3-methyl-pyrazine-2-carboxamide]
≥ 80%: inhibition of growth at 20 ppm [1] | pest or weed control at 200 ppm [2] | inhibition of growth at 20 ppm [3] | pest or weed control at 200 ppm [4]

Cc1ncc(Nc2cc(F)cc(F)c2)nc1C(=O)NC1CCC1(C)C (stereo not shown) [Compound P-47, 6-(3,5-difluoroanilino)-N-(2,2-dimethylcyclobutyl)-3-methyl-pyrazine-2-carboxamide]
≥ 80%: inhibition of growth at 20 ppm [1] | inhibition of growth at 20 ppm [3] | pest or weed control at 200 ppm [4]

CC1(NC(=O)c2cncc(Nc3cc(F)cc(F)c3)n2)CCCC1 [Compound P-48, 6-(3,5-difluoroanilino)-N-(1-methylcyclopentyl) pyrazine-2-carboxamide]
≥ 80%: inhibition of growth at 20 ppm [1] | inhibition of growth at 20 ppm [3] | inhibition of growth at 20 ppm [5] | inhibition of growth at 20 ppm [6]

COc1ncc(NCC(C)(C)O)nc1C(=O)NC1CCC1(C)C (stereo not shown) [Compound P-8, N-(2,2-dimethylcyclobutyl)-6-[(2-hydroxy-2-methyl-propyl)amino]-3-methoxy-pyrazine-2-carboxamide]
≥ 80%: inhibition of growth at 20 ppm [1] | pest or weed control at 200 ppm [2] | inhibition of growth at 20 ppm [3]

COc1ncc(Nc2cc(F)cc(F)c2)nc1C(=O)NC1COC(C2CC2)C1 (stereo not shown) [Compound P-24, N-(5-cyclopropyltetrahydrofuran-3-yl)-6-(3,5-difluoroanilino)-3-methoxy-pyrazine-2-carboxamide]
≥ 80%: inhibition of growth at 20 ppm [1] | pest or weed control at 200 ppm [2] | inhibition of growth at 20 ppm [3] | inhibition of growth at 20 ppm [5] | inhibition of growth at 20 ppm [6]

COc1ncc(Nc2cc(F)nc(F)c2)nc1C(=O)NCC1(C(F)(F)F)CC1 [Compound P-35, 6-[(2,6-difluoro-4-pyridyl)amino]-3-methoxy-N-[[1-(trifluoromethyl)cyclopropyl]methyl] pyrazine-2-carboxamide]
≥ 80%: inhibition of growth at 20 ppm [1] | pest or weed control at 200 ppm [2] | pest or weed control at 200 ppm [4]

CC1(NC(=O)c2cncc(Nc3cc(F)nc(F)c3)n2)CCCC1 [Compound P-49, 6-[(2,6-difluoro-4-pyridyl)amino]-N-(1-methylcyclopentyl) pyrazine-2-carboxamide]
≥ 80%: inhibition of growth at 20 ppm [1] | inhibition of growth at 20 ppm [3] | pest or weed control at 200 ppm [4] | inhibition of growth at 20 ppm [6]

COc1ncc(Nc2cc(F)cc(F)c2)nc1C(=O)NC1CCN(c2cccc(OC(F)(F)F)c2)C1=O (stereo not shown) [Compound P-6, 6-(3,5-difluoroanilino)-3-methoxy-N-[2-oxo-1-[3-(trifluoromethoxy)phenyl]pyrrolidin-3-yl]pyrazine-2-carboxamide]
≥ 80%: inhibition of growth at 20 ppm [1] | inhibition of growth at 20 ppm [3] | pest or weed control at 200 ppm [4]

COc1ncc(Nc2cc(F)cc(F)c2)nc1C(=O)NCC1(C)CCOC1 (stereo not shown) [Compound P-21]
≥ 80%: inhibition of growth at 20 ppm [1] | pest or weed control at 200 ppm [2] | inhibition of growth at 20 ppm [3] | pest or weed control at 200 ppm [4] | inhibition of growth at 20 ppm [6]

COc1ncc(Nc2cnsc2)nc1C(=O)NC1CCC1(C)C (stereo not shown) [Compound P-42, (isothiazol-4-ylamino)-N-(2,2-dimethylcyclobutyl)-6-3-methoxy-pyrazine-2-carboxamide]
≥ 80%: inhibition of growth at 20 ppm [3] | pest or weed control at 200 ppm [4] | inhibition of growth at 20 ppm [6]

COc1ncc(Nc2cnsc2)nc1C(=O)NC1CCc2ccc(C(F)(F)F)cc21 (stereo not shown) [Compound P-14, 6-(isothiazol-4-ylamino)-3-methoxy-N-[6-(trifluoromethyl)indan-1-yl]pyrazine-2-carboxamide]
≥ 80%: inhibition of growth at 20 ppm [1] | inhibition of growth at 20 ppm [3] | pest or weed control at 200 ppm [4] | inhibition of growth at 20 ppm [6]

COc1ncc(Nc2cc(F)cc(F)c2)nc1C(=O)NC1CC2CCOC21 (stereo not shown) [Compound P-28, 6-(3,5-difluoroanilino)-3-methoxy-N-(2-oxabicyclo[3.2.0]heptan-7-yl)pyrazine-2-carboxamide]
≥ 80%: pest or weed control at 200 ppm [7] | inhibition of growth at 20 ppm [1] | pest or weed control at 200 ppm [2] | pest or weed control at 200 ppm [4]

COc1ncc(Nc2cc(F)cc(F)c2)nc1C(=O)NCC1COc2ccccc21 (stereo not shown) [Compound P-26, 6-(3,5-difluoroanilino)-N-(2,3-dihydrobenzofuran-3-yimethyl)-3-methoxy-pyrazine-2-carboxamide]
≥ 80%: inhibition of growth at 20 ppm [1] | pest or weed control at 200 ppm [4]

COc1ncc(Nc2cc(F)cc(F)c2)nc1C(=O)NCC1(c2ccc(C(F)(F)F)cn2)CC1 [Compound P-19, 6-(3,5-difluoroanilino)-3-methoxy-N-[[1-[5-(trifluoromethyl)-2-pyridyl]cyclopropyl]methyl]pyrazine-2-carboxamide]
≥ 80%: inhibition of growth at 20 ppm [1] | inhibition of growth at 20 ppm [3] | pest or weed control at 200 ppm [4]

COc1ncc(Nc2cc(F)cc(F)c2)nc1C(=O)NCc1c(Cl)cncc1Cl [Compound P-23, N-[(3.5-dichloro-4-pyridyl)methyl]-6-(3,5-difluoroanilino)-3-methoxy-pyrazine-2-carboxamide]
≥ 80%: inhibition of growth at 20 ppm [1] | pest or weed control at 200 ppm [4]

CC1(C)CCC1NC(=O)c1cncc(Nc2cc(F)nc(F)c2)n1 (stereo not shown) [Compound P-46, 6-[(2,6-difluoro-4-pyridyl)amino]-N-(2,2-dimethylcyclobutyl) pyrazine-2-carboxamide]
≥ 80%: inhibition of growth at 20 ppm [1] | inhibition of growth at 20 ppm [3] | inhibition of growth at 20 ppm [6]

COc1ncc(NC2CCCC2)nc1C(=O)NC1CCC1(C)C (stereo not shown) [Compound P-1, 6-(cyclopentylamino)-N-(2,2-dimethylcyclobutyl)-3-methoxy-pyrazine-2-carboxamide]
≥ 80%: inhibition of growth at 20 ppm [1] | inhibition of growth at 20 ppm [3] | inhibition of growth at 20 ppm [5] | inhibition of growth at 20 ppm [6]

COc1ncc(Nc2cc(F)nc(F)c2)nc1C(=O)NCc1ccc(Oc2ccccc2)cc1 [Compound P-36, 6-[(2,6-difluoro-4-pyridyl)amino]-3-methoxy-N-[(4-phenoxyphenyl)methyl]pyrazine-2-carboxamide]
≥ 80%: inhibition of growth at 20 ppm [1] | pest or weed control at 200 ppm [4]
